Data from US20060140994A1, “Application of an antimicrobial agent on an elastomeric article” (priority 2004, published 2006).

Test system: Staphylococcus aureus (ATCC #27660)
Test: Rapid Germicidal Time Kill, ASTM protocol 04-123409-106
Format: cell-based
Conditions: for log reduction of organisms: nitrile gloves, versus applied organisms estimated from latex control
Protocol: To test the antimicrobial efficacy of a polyhexamethylene biguanide, such as available commercially under the trademark Cosmosil® CQ from Arch Chemicals, Inc., Norwalk, Conn., we treated nitrile examination gloves according to ASTM protocol 04-123409-106 “Rapid Germicidal Time Kill.” Briefly, about 50 μL of an overnight culture of Staphylococcus aureus (ATCC #27660, 5×10^8CFU/mL) was applied to the glove material. After a total contact time of about 6 minutes the glove fabric was placed into a neutralizing buffer. Surviving organisms were extracted and diluted in Letheen broth. Aliquots were spread plated on Tryptic Soy Agar plates. Plates were incubated for 48 hours at 35° C. Following incubation the surviving organisms were counted and the colony forming units (CFU) were recorded. The reduction (log10) in surviving organisms from test material versus control fabric was calculated:
Log10 CFU/swatch Control−Log10 CFU/swatch Test Article=Log10 Reduction.

polyhexamethylene biguanide
log reduction of Staphylococcus aureus (microtextured nitrile glove, machine applied at 0.03 g/glove): greater than four
log reduction of organisms (hand sprayed with no heat): greater than one
log reduction of organisms (machine sprayed under heated conditions): greater than 5 log
